Source: patent US8129371B2, “Thienopyrimidine and pyrazolopyrimidine compounds and their use as mTOR kinase and PI3 kinase inhibitors” (Wyeth LLC, priority 2007, dated 2012)
Where two headings read alike, the source gives them in different places.

Key:
breast line MDA468 = assay: In vitro cell culture growth assay (MTS), MDA468; type: cell-based; details: Homo sapiens, 72 h, MDA468 cells, three days after drug treatment
Outline: (§1)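 The readout was MTS dye metabolism at 490 nm, taken after 3-day drug exposure that began the day after seeding. Growth was expressed as percent of vehicle-treated wells in the same plate.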

Human mTOR (FLAG-TOR) = molecular target: T1, Human mTOR (FLAG-TOR) (Homo sapiens, UniProt P42345); assay: Human mTOR kinase assay with purified enzyme, DELFIA format; type: biochemical
T1 construct: FLAG
Outline: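 Purified FLAG-mTOR in HEPES pH 7.4 buffer with 10 mM MnCl2 was preincubated with inhibitor and reacted 2 h at room temperature with His6-S6K substrate, then stopped with EDTA/EGTA. Phospho-T389 S6K detected by DELFIA with Eu-labelled antibody (40 ng/mL) after plate capture; inhibition computed from signal.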

PI3K [1] = molecular target: T2, PI3K (Homo sapiens, UniProt P42336); assay: Fluorescence polarization assay for PI3K; type: biochemical; details: read-out: PI3 Kinase α IC50
T2 construct: PI3 Kinase α IC50; other: PI3 Kinase α; other: PI3 Kinase α isoform, fluorescence polarization
Outline: (§2)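 PI3K was preincubated with compound (final DMSO 1%), and the reaction was started with PIP2/ATP substrate and run 30–60 min. It was stopped with a detector mix giving 10 nM red probe and 70 nM GST-GRP.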

PI3K [2] = molecular target: T3, PI3K (Homo sapiens, UniProt P48736); assay: Fluorescence polarization assay for PI3K; type: biochemical; details: read-out: PI3 Kinase γ IC50
T3 construct: PI3 Kinase γ IC50; other: PI3 Kinase γ; other: PI3 Kinase γ isoform, fluorescence polarization
Outline: as §2

prostate line LNCap = assay: In vitro cell culture growth assay (MTS), LNCap; type: cell-based; details: Homo sapiens, LNCaP, 72 h, LNCap cells, three days after drug treatment
Outline: as §1

[3] = purified human mTOR enzyme, DELFIA format
[4] = PI3 Kinase α isoform, fluorescence polarization
[5] = PI3 Kinase γ isoform, fluorescence polarization

T3 sequence (P48736 whole entry, canonical isoform): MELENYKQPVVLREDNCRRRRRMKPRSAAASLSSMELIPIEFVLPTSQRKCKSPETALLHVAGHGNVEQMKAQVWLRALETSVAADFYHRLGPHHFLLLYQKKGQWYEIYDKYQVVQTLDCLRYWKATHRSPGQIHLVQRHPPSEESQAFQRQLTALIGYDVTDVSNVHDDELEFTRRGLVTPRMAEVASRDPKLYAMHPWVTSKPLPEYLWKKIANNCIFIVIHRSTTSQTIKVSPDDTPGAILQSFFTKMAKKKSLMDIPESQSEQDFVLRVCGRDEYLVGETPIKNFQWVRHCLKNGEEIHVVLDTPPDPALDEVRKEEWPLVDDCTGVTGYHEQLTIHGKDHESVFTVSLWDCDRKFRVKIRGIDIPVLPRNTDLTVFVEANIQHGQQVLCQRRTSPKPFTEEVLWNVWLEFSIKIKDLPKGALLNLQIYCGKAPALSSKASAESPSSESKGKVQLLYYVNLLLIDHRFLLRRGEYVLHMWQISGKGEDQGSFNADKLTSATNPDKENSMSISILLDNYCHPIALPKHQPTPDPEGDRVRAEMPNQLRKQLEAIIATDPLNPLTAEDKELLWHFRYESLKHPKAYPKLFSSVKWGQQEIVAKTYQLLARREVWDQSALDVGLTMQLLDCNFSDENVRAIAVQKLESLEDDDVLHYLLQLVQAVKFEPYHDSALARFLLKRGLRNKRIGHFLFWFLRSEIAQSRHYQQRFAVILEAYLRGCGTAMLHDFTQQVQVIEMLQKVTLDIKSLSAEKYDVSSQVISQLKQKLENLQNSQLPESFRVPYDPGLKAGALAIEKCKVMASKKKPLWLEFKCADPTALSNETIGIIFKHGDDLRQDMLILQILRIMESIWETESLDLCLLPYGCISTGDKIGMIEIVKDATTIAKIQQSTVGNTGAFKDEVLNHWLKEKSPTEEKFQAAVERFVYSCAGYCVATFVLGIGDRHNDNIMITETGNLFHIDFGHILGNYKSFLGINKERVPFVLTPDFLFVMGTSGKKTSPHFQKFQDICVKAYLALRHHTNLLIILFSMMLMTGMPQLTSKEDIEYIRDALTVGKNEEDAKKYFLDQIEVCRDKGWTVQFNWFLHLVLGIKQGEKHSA
T2 sequence (P42336 whole entry, canonical isoform): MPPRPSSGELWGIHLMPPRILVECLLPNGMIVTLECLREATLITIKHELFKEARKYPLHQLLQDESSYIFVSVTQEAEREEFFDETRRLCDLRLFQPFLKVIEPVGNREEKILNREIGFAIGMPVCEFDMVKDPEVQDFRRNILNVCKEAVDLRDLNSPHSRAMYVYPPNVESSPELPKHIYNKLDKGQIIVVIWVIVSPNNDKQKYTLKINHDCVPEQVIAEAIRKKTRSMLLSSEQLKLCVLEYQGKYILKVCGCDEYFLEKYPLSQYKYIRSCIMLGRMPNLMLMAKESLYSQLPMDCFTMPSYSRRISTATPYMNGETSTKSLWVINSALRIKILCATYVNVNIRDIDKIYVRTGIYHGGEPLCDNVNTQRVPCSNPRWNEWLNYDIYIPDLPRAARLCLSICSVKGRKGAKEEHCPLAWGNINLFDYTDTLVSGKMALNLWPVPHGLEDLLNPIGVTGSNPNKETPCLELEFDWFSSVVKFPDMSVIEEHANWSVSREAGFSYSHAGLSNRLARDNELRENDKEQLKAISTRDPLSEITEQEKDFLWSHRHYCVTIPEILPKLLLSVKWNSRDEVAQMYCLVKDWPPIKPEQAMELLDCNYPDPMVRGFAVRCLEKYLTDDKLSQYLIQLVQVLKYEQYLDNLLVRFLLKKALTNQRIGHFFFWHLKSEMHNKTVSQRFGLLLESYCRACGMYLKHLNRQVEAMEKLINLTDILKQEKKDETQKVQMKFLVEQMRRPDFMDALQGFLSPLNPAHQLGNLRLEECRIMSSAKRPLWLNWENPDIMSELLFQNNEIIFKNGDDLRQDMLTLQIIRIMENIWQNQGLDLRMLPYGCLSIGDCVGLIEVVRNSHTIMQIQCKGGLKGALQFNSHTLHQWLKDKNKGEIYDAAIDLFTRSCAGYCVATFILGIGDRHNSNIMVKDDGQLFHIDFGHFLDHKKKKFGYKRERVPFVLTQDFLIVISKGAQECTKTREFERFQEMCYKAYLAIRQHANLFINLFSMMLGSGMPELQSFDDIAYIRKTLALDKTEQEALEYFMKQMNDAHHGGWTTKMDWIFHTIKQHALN

Compound | IC50 (breast line MDA468) [nM] | IC50 (Human mTOR (FLAG-TOR)) [nM] | IC50 (PI3K [1]; PI3 Kinase α) [nM] | IC50 (PI3K [2]; PI3 Kinase γ) [nM] | IC50 (prostate line LNCap) [nM] | IC50 (Human mTOR (FLAG-TOR); [3]) [nM] | IC50 (PI3K [1]; [4]) [nM] | IC50 (PI3K [2]; [5]) [nM]
CCn1ncc2c(N3CC4CCC(C3)O4)nc(-c3ccc(NC(=O)Nc4ccc(N5CCOCC5)nc4)cc3)nc21 [Example 184, 1-{4-[1-ethyl-4-(8-oxa-3-azabicyclo[3.2.1]oct-3-yl)-1H-pyrazolo[3,4-d]pyrimidin-6-yl]phenyl}-3-(6-morpholin-4-ylpyridin-3-yl)urea] | 8 | 0.295 | 2150 | 7760 | 1 |  |  | 
CCNC(=O)Nc1ccc(-c2nc(N3C4CCC3COC4)c3cnn(C4CCN(C(=O)OC)CC4)c3n2)cc1 [Example 357, methyl 4-[6-{4-[(ethylcarbamoyl)amino]phenyl}-4-(3-oxa-8-azabicyclo[3.2.1]oct-8-yl)-1H-pyrazolo[3,4-d]pyrimidin-1-yl]piperidine-1-carboxylate] | 70 |  |  |  | 9 | 0.625 | 5550 | 9160
O=C(Nc1ccc(-c2nc(N3CC4CCC(C3)O4)c3cnn(C4CCN(CC(F)(F)F)CC4)c3n2)cc1)NC1CC1 [Example 265, 1-cyclopropyl-3-(4-{4-(8-oxa-3-azabicyclo[3.2.1]oct-3-yl)-1-[1-(2,2,2-trifluoroethyl)piperidin-4-yl]-1H-pyrazolo[3,4-d]pyrimidin-6-yl}phenyl)urea] | 700 | 1.2 | 3470 | > 10000 | 18 |  |  | 
CN(C)c1ccc(NC(=O)Nc2ccc(-c3nc(N4CC5CCC(C4)O5)c4cnn(C)c4n3)cc2)cc1 [Example 233, 1-[4-(dimethylamino)phenyl]-3-{4-[1-methyl-4-(8-oxa-3-azabicyclo[3.2.1]oct-3-yl)-1H-pyrazolo[3,4-d]pyrimidin-6-yl]phenyl}urea] | 140 | 0.865 | 604 | > 10000 | 40 |  |  | 
O=C(Nc1ccc(-c2nc(N3CC4CCC(C3)O4)c3cnn(CCO)c3n2)cc1)OCCO [Example 195, 2-hydroxyethyl {4-[1-(2-hydroxyethyl)-4-(8-oxa-3-azabicyclo[3.2.1]oct-3-yl)-1H-pyrazolo[3,4-d]pyrimidin-6-yl]phenyl}carbamate] | 1500 | 4.9 | 1880 | > 10000 | 640 |  |  | 
COCC(COC)n1ncc2c(N3CC4CCC(C3)O4)nc(-c3ccc(NC(=O)Nc4ccc(C(=O)NN(C)C)cc4)cc3)nc21 [Example 336, 1-{4-[(2,2-dimethylhydrazino)carbonyl]phenyl}-3-(4-{1-[2-methoxy-1-(methoxymethyl)ethyl]-4-(8-oxa-3-azabicyclo[3.2.1]oct-3-yl)-1H-pyrazolo[3,4-d]pyrimidin-6-yl}phenyl)urea] | 4 |  |  |  | < 1 | 2.75 | 666 | > 10000
CC(C)n1ncc2c(N3CC4CCC(C3)O4)nc(-c3ccc(NC(=O)Nc4ccccc4)cc3)nc21 [Example 147, 1-{4-[1-isopropyl-4-(8-oxa-3-azabicyclo[3.2.1]oct-3-yl)-1H-pyrazolo[3,4-d]pyrimidin-6-yl]phenyl}-3-phenylurea] | 18 | 0.185 | 30 | 475 | < 1 |  |  | 
COC(=O)N1CCC(n2ncc3c(N4C5CCC4COC5)nc(-c4ccc(NC(=O)Nc5ccccc5)cc4)nc32)CC1 [Example 360, methyl 4-[4-(3-oxa-8-azabicyclo[3.2.1]oct-8-yl)-6-{4-[(phenylcarbamoyl)amino]phenyl}-1H-pyrazolo[3,4-d]pyrimidin-1-yl]piperidine-1-carboxylate] | 40 |  |  |  | 10 | 0.425 | 1460 | 2150
CCn1ncc2c(N3CC4CCC(C3)O4)nc(-c3ccc(NC(=O)OC)cc3)nc21 [Example 375, methyl {4-[1-ethyl-4-(8-oxa-3-azabicyclo[3.2.1]oct-3-yl)-1H-pyrazolo[3,4-d]pyrimidin-6-yl]phenyl}carbamate] | 1700 |  |  |  | 700 | 15.5 | 4790 | > 10000
CNC(=O)Nc1ccc(-c2nc(N3CC4CCC(C3)O4)c3cnn(C4CCN(C(=O)C(C)C)CC4)c3n2)cc1 [Example 82, 1-{4-[1-(1-isobutyrylpiperidin-4-yl)-4-(8-oxa-3-azabicyclo[3.2.1]oct-3-yl)-1H-pyrazolo[3,4-d]pyrimidin-6-yl]phenyl}-3-methylurea] | 230 | 0.58 | 1710 | > 10000 | 60 |  |  | 
Cn1ncc2c(N3CC4CCC(C3)O4)nc(-c3ccc(NC(=O)Nc4ccc(N5CCOCC5)nc4)cc3)nc21 [Example 237, 1-{4-[1-methyl-4-(8-oxa-3-azabicyclo[3.2.1]oct-3-yl)-1H-pyrazolo[3,4-d]pyrimidin-6-yl]phenyl}-3-(6-morpholin-4-ylpyridin-3-yl)urea] | 52 | 0.37 | 1350 | > 10000 | 7 |  |  | 
Cn1ncc2c(N3CC4CCC(C3)O4)nc(-c3ccc(NC(=O)Nc4ccc(CCO)cc4)cc3)nc21 [Example 232, 1-[4-(2-hydroxyethyl)phenyl]-3-{4-[1-methyl-4-(8-oxa-3-azabicyclo[3.2.1]oct-3-yl)-1H-pyrazolo[3,4-d]pyrimidin-6-yl]phenyl}urea] | 2 | 0.105 | 60 | 524 | < 1 |  |  | 
CN(C)CCn1ncc2c(N3CC4CCC(C3)O4)nc(-c3ccc(NC(=O)Nc4ccncc4)cc3)nc21 [Example 162, 1-(4-{1-[2-(dimethylamino)ethyl]-4-(8-oxa-3-azabicyclo[3.2.1]oct-3-yl)-1H-pyrazolo[3,4-d]pyrimidin-6-yl}phenyl)-3-pyridin-4-ylurea] | 200 | 1.2 | 173 | 482 | 50 |  |  | 
N#CCCn1ncc2c(N3CC4CCC(C3)O4)nc(-c3ccc(NC(=O)Nc4cccnc4)cc3)nc21 [Example 216, 1-{4-[1-(2-cyanoethyl)-4-(8-oxa-3-azabicyclo[3.2.1]oct-3-yl)-1H-pyrazolo[3,4-d]pyrimidin-6-yl]phenyl}-3-pyridin-3-ylurea] | 55 | 0.255 | 124 | 3320 | 4 |  |  | 
CCNC(=O)Nc1ccc(-c2nc(N3CC4CCC(C3)O4)c3cnn(CC(F)(F)F)c3n2)cc1 [Example 3, 1-ethyl-3-{4-[4-(8-oxa-3-azabicyclo[3.2.1]oct-3-yl)-1-(2,2,2-trifluoroethyl)-1H-pyrazolo[3,4-d]pyrimidin-6-yl]phenyl}urea] | < 27 | 0.38 | 3750 | > 10000 | < 27 |  |  | 
CCn1ncc2c(N3CC4CCC(C3)O4)nc(-c3ccc(NC(=O)NCCN4CCN(C)CC4)cc3)nc21 [Example 178, 1-{4-[1-ethyl-4-(8-oxa-3-azabicyclo[3.2.1]oct-3-yl)-1H-pyrazolo[3,4-d]pyrimidin-6-yl]phenyl}-3-[2-(4-methylpiperazin-1-yl)ethyl]urea] | 5800 | 87 | 959 | > 10000 | 1900 |  |  | 
OCCNc1ccc(-c2nc(N3CC4CCC(C3)O4)c3cnn(C4CCC5(CC4)OCCO5)c3n2)cc1 [Example 132, 2-({4-[1-(1,4-dioxaspiro[4.5]dec-8-yl)-4-(8-oxa-3-azabicyclo[3.2.1]oct-3-yl)-1H-pyrazolo[3,4-d]pyrimidin-6-yl]phenyl}amino)ethanol] | 5000 | 15.5 | > 10000 | > 10000 | 580 |  |  | 
CN(C)CCn1ncc2c(N3CC4CCC(C3)O4)nc(-c3ccc(NC(=O)Nc4ccc(CCO)cc4)cc3)nc21 [Example 155, 1-(4-{1-[2-(dimethylamino)ethyl]-4-(8-oxa-3-azabicyclo[3.2.1]oct-3-yl)-1H-pyrazolo[3,4-d]pyrimidin-6-yl}phenyl)-3-[4-(2-hydroxyethyl)phenyl]urea] | 110 | 1.75 | 82 | 1170 | 1 |  |  | 
COCCOC(=O)Nc1ccc(-c2nc(N3CC4CCC(C3)O4)c3cnn(C4CCN(C(=O)OC)CC4)c3n2)cc1 [Example 113, methyl 4-[6-(4-{[(2-methoxyethoxy)carbonyl]amino}phenyl)-4-(8-oxa-3-azabicyclo[3.2.1]oct-3-yl)-1H-pyrazolo[3,4-d]pyrimidin-1-yl]piperidine-1-carboxylate] | 30000 | 225 | 7510 | > 10000 | 2700 |  |  | 
O=C(Nc1ccccc1)Nc1ccc(-c2nc(N3CC4CCC(C3)O4)c3cnn(C4CCN(Cc5cccnc5)CC4)c3n2)cc1 [Example 17, 1-(4-{4-(8-oxa-3-azabicyclo[3.2.1]oct-3-yl)-1-[1-(pyridin-3-ylmethyl)piperidin-4-yl]-1H-pyrazolo[3,4-d]pyrimidin-6-yl}phenyl)-3-phenylurea] | 10 | 0.61 | 222 | 1860 | 0.8 |  |  | 
